Measured values as given in patent publication US8449886B2, “Combination of anti-CTLA4 antibody with tubulin modulating agents for the treatment of proliferative diseases” (Bristol-Myers Squibb Company, priority 2008, dated 2013).

What was measured:
M109 lung carcinoma [1] = test: M109 lung carcinoma tumor model, initial tumor implantation; type: in vivo, mice; conditions: for antitumor effect in M109: Study 40, text and FIG. 1
Procedure: (§1) Tumor cell lines were maintained in vitro. Treatments were initiated when the subcutaneous tumors reached a median size between 100-200 mm^3 (established model) or prior to detection (initiation model). Tumors were measured twice weekly and tumor size (mm^3) was calculated as […]. Body weights were obtained weekly. The tumor models used in these studies are outlined in Table 1.
(§2) The dose levels, routes and dosing schedules are indicated for each particular study described below. Antibodies and chemotherapeutic agents were administered intraperitoneally (i.p.). Each treatment regimen consisted of a cohort of eight to ten mice. Anti-tumor activity, defined as percentage tumor growth inhibition, was calculated as follows: % Tumor Growth Inhibition=100−[(Tt/To)/(Ct/Co)]/100−(Ct/Co) where,
In these studies treatments with chemotherapeutic agents were initiated when tumors were palpable, on day 3 after tumor implantation. […] As in the studies conducted in the SA1N and EMT-6 tumor lines, CTLA-4 mAb was dosed one day after treatment with chemotherapy.

CT26 colon carcinoma = CT26 colon carcinoma tumor model; type: in vivo, mice; conditions: for antitumor effect in CT26: footnotes and FIG. 2
Procedure: as §1
as §2, with “where, […]” for “where,”

EMT-6 mammary carcinoma = EMT-6 mammary carcinoma tumor model; type: in vivo, mice; conditions: Study 27; for T − C: IP, treatment from day 3/4, ixabepilone 8 mg/kg, paclitaxel 24 mg/kg, CTLA-4 mAb 20 mg/kg
Procedure: as §1, §2
(§3) In addition, another parameter used to define efficacy was to determine time to tumor progression to target size (T-C), where the time (days) for the median tumor size of control (C) mice to reach target size was subtracted to the time for median tumor size of treated (T) mice to reach target size.

SA1N fibrosarcoma = SA1N fibrosarcoma tumor model, subcutaneous, established tumors; type: in vivo, mice; conditions: for T − C: target size 500 mm^3; for % TGI: IP every 4 days x3, ixabepilone 8 mg/kg, CTLA-4 mAb 20 mg/kg
Procedure: Antibody UC10 (hamster IgG anti-mouse CTLA-4) was produced and purified by BMS (Protein Therapeutics Division, Hopewell, N.J., USA). […] Stock solutions of anti-CTLA-4 were kept at −80° C. and were thawed out at 4° C. prior to use. Control antibody consisted of a polyclonal hamster IgG (Jackson ImmunoResearch, West Grove, Pa.). Dosing solutions of Anti-CTLA-4 and hamster IgG control were prepared weekly in sterile phosphate buffered saline (pH 7.0).
Eight to twelve week-old female BALB/c, A/J or C57/BL6 mice were purchased from Harlan, Indianapolis, Ind. Mice received food and water ad libitum, and were maintained in a controlled environment according to AALAC regulations.
as §1, §2
Tt=median tumor size of treated group at the end of treatment
To=median tumor size of treated group at treatment initiation
Ct=median tumor size of control group at the end of treatment
Co=median tumor size at treatment initiation
as §3
Nonparametric analysis using the Wilcoxon test was used to determine statistical significance.
SA1N fibrosarcoma is an inherently immunogenic tumor line which is sensitive to the effects of CTLA-4 blockade. […] Animals were implanted with SA1N cells subcutaneously and treatments were initiated when tumors reached 100-150 mm^3. Experimental groups consisted of cohorts of 8 mice. […] In the combination groups, CTLA-4 mab was administered one day after each chemotherapy treatment.

[2] = tested on: paclitaxel-sensitive (A2780, HCT116 and LS174T) and paclitaxel-resistant human colon tumors (HCT116NM46), ovarian carcinoma (Pat-7 and A2780Tax) and breast …; test: Preclinical pharmacology studies of Compound 1 in tumor models; type: in vivo
M109 lung carcinoma [3] = test: M109 rechallenge of tumor-free mice with a lethal M109 cell inoculum; type: in vivo; conditions: tumor-free mice by day 97 rechallenged; 5 ixabepilone mice, 8 combination mice
Procedure: To determine whether the combination of CTLA-4+ixabepilone produced a memory immune response able to reject a secondary tumor challenge, animals free of tumors by day 97 were re-challenge with a lethal M109 cell inoculum. For this part of the study, M109 cells were injected into: a) 10 naïve mice (to control for tumor growth); and in study mice free of tumors: b) 5 mice previously treated with ixabepilone and c) 8 mice previously treated with ixabepilone+CTLA-4 mAb. All control mice developed progressive tumors with a median tumor size of 1000 mm^3 10 days later whereas 4 out of 5 mice in the Ixabepilone-treated mice developed tumors (80%).

[4] = tested on: SA1N fibrosarcoma, M109 lung carcinoma, EMT-6 mammary carcinoma, CT-26 colon carcinoma and B16 melanoma; test: Efficacy studies of CTLA-4 mAb with ixabepilone or paclitaxel across murine tumor models (summary statements); type: in vivo, mice; conditions: animals with complete regressions rechallenged with a lethal dose of tumor cells
Procedure: as §1, §2, §3

[5] = Study 17, study terminated day 116

Compound | antitumor effect in M109 (M109 lung carcinoma [1]) | antitumor effect in CT26 (CT26 colon carcinoma) | antitumor effect of single agent in EMT-6 (EMT-6 mammary carcinoma) | T − C (EMT-6 mammary carcinoma) | T − C (SA1N fibrosarcoma; Study 11, study terminated day 52) | T − C (SA1N fibrosarcoma; [5]) | antitumor effect in SA1N (SA1N fibrosarcoma; two independent studies) | oral efficacy ([2]; oral vs parenteral administration) | antitumor activity ([2]; paclitaxel-sensitive and paclitaxel-resistant tumor models) | % Tumor-Free Mice after Initial Tumor Implantation (M109 lung carcinoma [1]; Study 40, footnote: percentage of animals that develop tumors following implantation on Day 0, chemotherapy from day 3, IP) | mice that developed tumors after M109 rechallenge (M109 lung carcinoma [3]) | % Complete Regressions/Total # mice (CT26 colon carcinoma; IP every 4 days x3, CTLA-4 mAb 20 mg/kg days 5, 9, 13, chemotherapy days 4, 8, 12) | % Tumor-free Mice (EMT-6 mammary carcinoma) | % TGI (SA1N fibrosarcoma; Study 9, calculated Day 36 (last measurement for control group)) | T − C (SA1N fibrosarcoma; Study 9, study terminated day 39) | % TGI (SA1N fibrosarcoma; Study 17, calculated Day 33, paclitaxel 24 mg/kg) | protection against subsequent tumor rechallenge [4]
5beta,20-Epoxy-1,2alpha,4,7beta,10beta,13alpha-hexahydroxytax-11-en-9-one 4,10-diacetate 2-benzoate 13-ester with (2R,3S)—N-benzoyl-3-phenylisoserine [Paclitaxel] | did not produce antitumor effects | neither paclitaxel or ixabepilone produced any measurable antitumor activity | ineffective | 0 days | 13 days | 0 days | variable effect | – | – | – | – | – | – | – | – | – | –
C/C(=C\c1csc(C)n1)[C@@H]1C[C@@H]2O[C@]2(C)CCC[C@H](C)[C@H](O)[C@@H](C)C(=O)C(C)(C)[C@@H](O)CC(=O)N1 (relative stereo) [Compound 1, [1S-[1R*,3R*(E),7R*,10S*,11R*,12R*,16S*]]-7,11-dihydroxy-8,8,10,12,16-pentamethyl-3-[1-methyl-2-(2-methyl-4-thiazolyl)ethenyl]-4-aza-17-oxabicyclo[14.1.0]heptadecane-5,9-dione] | – | – | – | – | – | – | – | orally efficacious | very impressive and broad spectrum of antitumor activity | – | – | – | – | – | – | – | –
C/C(=C\c1csc(C)n1)[C@@H]1C[C@@H]2O[C@]2(C)CCC[C@H](C)[C@H](O)[C@@H](C)C(=O)C(C)(C)[C@@H](O)CC(=O)N1 [Ixabepilone, (1S,3S,7S,10R,11S,12S,16R)-7,11-dihydroxy-8,8,10,12,16-pentamethyl-3-[(1E)-1-methyl-2-(2-methyl-4-thiazolyl)ethenyl]-17-oxa-4-azabicyclo[14.1.0]heptadecane-5,9-dione] | very effective | neither paclitaxel or ixabepilone produced any measurable antitumor activity | – | 19 days | – | 7 days | – | – | – | 50% | 4 out of 5 | 0/10 | 20% | 92% | 11 days | 83% | only partial protection
